Reference: US20180104224A1, “PHARMACEUTICAL COMPOSITIONS COMPRISING ANTIBACTERIAL AGENTS” (priority 2014, published 2018)

Experiments:
P. aeruginosa 1405 = assay: MIC determination in Muller Hinton Agar (CLSI); format: cell-based, Pseudomonas aeruginosa;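 also: MIC read as lowest concentration giving complete growth inhibition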
Description: (§1) The antibacterial activity of combinations according to the invention against resistant bacterial strains was investigated. Minimum Inhibitory Concentration (MIC) determination for the combinations according to invention was carried out in Muller Hinton Agar (MHA) (BD, USA) according to Clinical and Laboratory Standards Institute (CLSI) recommendations, (Clinical and Laboratory Standards Institute (CLSI), Performance Standards for Antimicrobial Susceptibility Testing, 20th Informational Supplement, M 100-S20, Volume 30, No. 1, 2010). In short, the test strains were adjusted to deliver about 10^4 CFU per spot with a multipoint inoculator (Applied Quality Services, UK). The plates were pored with MHA containing doubling concentration range of the test combinations according to invention. The plates were inoculated and were incubated at 35° C. for 18 hours.

P. aeruginosa 2779 = assay: MIC determination in Muller Hinton Agar (CLSI); format: cell-based, Pseudomonas aeruginosa;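 also: MIC read as lowest concentration giving complete growth inhibition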
Description: as §1

P. aeruginosa J 154 = assay: MIC determination in Muller Hinton Agar (CLSI);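 as to MIC (mcg/ml) of carbapenem in presence of [A] at 4 mcg/ml: MIC read as lowest concentration giving complete growth inhibition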;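 as to MIC (mcg/ml) of carbapenem in presence of [B] at 4 mcg/ml: MIC read as lowest concentration giving complete growth inhibition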; format: cell-based, Pseudomonas aeruginosa; settings: for MIC: Pseudomonas aeruginosa, J154, agent alone, P. aeruginosa J 154 [Reduced OprD]
Description: as §1

P. aeruginosa R 70 = assay: MIC determination in Muller Hinton Agar (CLSI); format: cell-based, Pseudomonas aeruginosa; settings: for MIC: Pseudomonas aeruginosa, R70, 18 h, agent alone, P. aeruginosa R 70 [Reduced OprD + increased efflux]
Description: as §1

[1] = system: Pseudomonas aeruginosa 1405; assay: Time kill study; format: cell-based; settings: P. aeruginosa 1405; for effect on bacterial counts through out the duration of the study (in words): when used alone
Description: (§2) The synergistic killing effect of the combinations according to invention was studied by performing time kill studies. In a typical time kill study, the freshly grown cultures were diluted to the required cell density (initial starting inoculum) in Cation adjusted Muller Hinton broth medium (BD, USA). The antibacterial agents (either alone or in combination) at the required concentrations were added into the culture-containing medium. The samples were incubated under shaking condition (120 rpm) at 37° C. Enumeration of viable bacterial count was done every 2 hour by diluting in normal saline and plating on to the Tryptic Soya Agar plates (BD, USA). The plates were incubated for 24 hours to arrive at the viable bacterial count. The results are expressed in terms of Log10 CFU per ml. In general, the decrease of 1 Log10 CFU/ml, corresponds to 90% killing of bacteria.

[2] = system: Pseudomonas aeruginosa R70; assay: Time kill study; format: cell-based; settings: P. aeruginosa R70; for effect on bacterial counts through out the duration of the study (in words): when used alone
Description: as §2

[3] = system: highly resistant strains of Pseudomonas aeruginosa; assay: MIC determination, all strains; format: cell-based; settings: when used alone; highly resistant strains of P. aeruginosa
Description: as §1
The results on antibacterial activity of a carbapenem antibacterial agent selected from imipenem, meropenem, ertapenem and doripenem alone and in combination with Compound A or Compound B, against highly resistant strains of Pseudomonas aeruginosa are given in Table 1. […] For example, P. aeruginosa 2779 harbors resistance due to increased AmpC expression (300 times) and increased efflux; P. aeruginosa 1405 harbors resistance due to increased AmpC expression (600 times), reduced OprD expression and increased efflux; P. aeruginosa R 70 harbors resistance due to reduced OprD expression and increased efflux; and P. aeruginosa J 154 harbors resistance due to reduced OprD.

[4] = in presence of Compound A at 4 mcg/ml
[5] = in presence of Compound B at 4 mcg/ml

SMILES	MIC (P. aeruginosa J 154) [mg/L]	MIC (P. aeruginosa R 70) [mg/L]	Bacterial count (Log10 CFU/ml) 0 hour ([1]; Table 2, single agent 4 mcg/ml) [Log10 CFU/ml]	Bacterial count (Log10 CFU/ml) 2 hour ([1]; Table 2, single agent 4 mcg/ml) [Log10 CFU/ml]	Bacterial count (Log10 CFU/ml) 4 hour ([1]; Table 2, single agent 4 mcg/ml) [Log10 CFU/ml]	Bacterial count (Log10 CFU/ml) 6 hour ([1]; Table 2, single agent 4 mcg/ml) [Log10 CFU/ml]	Bacterial count (Log10 CFU/ml) 0 hour ([1]; Table 3, single agent 4 mcg/ml) [Log10 CFU/ml]	Bacterial count (Log10 CFU/ml) 2 hour ([1]; Table 3, single agent 4 mcg/ml) [Log10 CFU/ml]	Bacterial count (Log10 CFU/ml) 4 hour ([1]; Table 3, single agent 4 mcg/ml) [Log10 CFU/ml]	Bacterial count (Log10 CFU/ml) 6 hour ([1]; Table 3, single agent 4 mcg/ml) [Log10 CFU/ml]	Bacterial count (Log10 CFU/ml) 0 hour ([2]; Table 5, single agent 2 mcg/ml) [Log10 CFU/ml]	Bacterial count (Log10 CFU/ml) 2 hour ([2]; Table 5, single agent 2 mcg/ml) [Log10 CFU/ml]	Bacterial count (Log10 CFU/ml) 4 hours ([2]; Table 5, single agent 2 mcg/ml) [Log10 CFU/ml]	Bacterial count (Log10 CFU/ml) 6 hour ([2]; Table 5, single agent 2 mcg/ml) [Log10 CFU/ml]	effect on bacterial counts through out the duration of the study (in words) [1]	effect on bacterial counts through out the duration of the study (in words) [2]	MIC values (in words) [3]	also measured
C[C@@H](O)[C@H]1C(=O)N2C(C(=O)O)=C(SCCN=CN)C[C@H]12 [Imipenem, imipenem]	16	8	6.84	6.39	7.04	8.16	6.81	6.4	7.78	7.93	6.44	5.6	5.8	6.3				MIC (mcg/ml) of carbapenem in presence of [A] at 4 mcg/ml (P. aeruginosa 1405; [4]): 1 µg/mL; MIC (mcg/ml) of carbapenem in presence of [B] at 4 mcg/ml (P. aeruginosa 1405; [5]): 1 µg/mL; MIC (mcg/ml) of carbapenem in presence of [A] at 4 mcg/ml (P. aeruginosa 2779; [4]): ≤0.25 µg/mL; MIC (mcg/ml) of carbapenem in presence of [B] at 4 mcg/ml (P. aeruginosa 2779; [5]): 0.12 µg/mL; MIC (mcg/ml) of carbapenem in presence of [A] at 4 mcg/ml (P. aeruginosa J 154; in presence of Compound A at 4 mcg/ml, P. aeruginosa J 154): 4 µg/mL; MIC (mcg/ml) of carbapenem in presence of [B] at 4 mcg/ml (P. aeruginosa J 154; in presence of Compound B at 4 mcg/ml, P. aeruginosa J 154): 0.5 µg/mL; MIC (mcg/ml) of carbapenem in presence of [A] at 4 mcg/ml (P. aeruginosa R 70; in presence of Compound A at 4 mcg/ml, P. aeruginosa R 70): 2 µg/mL; MIC (mcg/ml) of carbapenem in presence of [B] at 4 mcg/ml (P. aeruginosa R 70; in presence of Compound B at 4 mcg/ml, P. aeruginosa R 70): ≤0.12 µg/mL; Bacterial count (Log10 CFU/ml) 0 hour ([2]; Table 4, single agent 2 mcg/ml): 6.62 Log10 CFU/ml; Bacterial count (Log10 CFU/ml) 2 hour ([2]; Table 4, single agent 2 mcg/ml): 5.7 Log10 CFU/ml; Bacterial count (Log10 CFU/ml) 4 hour ([2]; Table 4, single agent 2 mcg/ml): 5.98 Log10 CFU/ml; Bacterial count (Log10 CFU/ml) 6 hour ([2]; Table 4, single agent 2 mcg/ml): 6.78 Log10 CFU/ml
O=C(NNC(=O)[C@@H]1CC[C@@H]2CN1C(=O)N2OS(=O)(=O)O)[C@@H]1CCCNC1 [Compound A, trans-sulfuric acid mono-[2-(N′-[(R)-piperidin-3-carbonyl]-hydrazinocarbonyl)-7-oxo-1,6-diaza-bicyclo[3.2.1]oct-6-yl]ester]	16	8	6.84	6.81	7.84	8.06									failed to reduce the bacterial counts	failed to reduce the bacterial counts	higher MIC values	Bacterial count (Log10 CFU/ml) 0 hour ([1]; Table 2, single agent 8 mcg/ml): 6.84 Log10 CFU/ml; Bacterial count (Log10 CFU/ml) 2 hour ([1]; Table 2, single agent 8 mcg/ml): 6.48 Log10 CFU/ml; Bacterial count (Log10 CFU/ml) 4 hour ([1]; Table 2, single agent 8 mcg/ml): 7.4 Log10 CFU/ml; Bacterial count (Log10 CFU/ml) 6 hour ([1]; Table 2, single agent 8 mcg/ml): 7.54 Log10 CFU/ml; Bacterial count (Log10 CFU/ml) 0 hour ([2]; Table 4, single agent 4 mcg/ml): 6.62 Log10 CFU/ml; Bacterial count (Log10 CFU/ml) 2 hour ([2]; Table 4, single agent 4 mcg/ml): 7.07 Log10 CFU/ml; Bacterial count (Log10 CFU/ml) 4 hour ([2]; Table 4, single agent 4 mcg/ml): 8.35 Log10 CFU/ml; Bacterial count (Log10 CFU/ml) 6 hour ([2]; Table 4, single agent 4 mcg/ml): 8.48 Log10 CFU/ml; Bacterial count (Log10 CFU/ml) 0 hour ([2]; Table 4, single agent 8 mcg/ml): 6.62 Log10 CFU/ml; Bacterial count (Log10 CFU/ml) 2 hour ([2]; Table 4, single agent 8 mcg/ml): 6.9 Log10 CFU/ml; Bacterial count (Log10 CFU/ml) 4 hour ([2]; Table 4, single agent 8 mcg/ml): 7.11 Log10 CFU/ml; Bacterial count (Log10 CFU/ml) 6 hour ([2]; Table 4, single agent 8 mcg/ml): 7.16 Log10 CFU/ml
O=C(NNC(=O)[C@@H]1CC[C@@H]2CN1C(=O)N2OS(=O)(=O)O)[C@@H]1CCNC1 [Compound B, trans-sulfuric acid mono-[2-(N′-[(R)-pyrrolidin-3-carbonyl]-hydrazinocarbonyl)-7-oxo-1,6-diaza-bicyclo[3.2.1]oct-6-yl]ester]	8	2					6.81	6.54	6.65	6.7	6.44	7.11	7.3	7.6	failed to reduce the bacterial counts	failed to reduce the bacterial counts	higher MIC values	Bacterial count (Log10 CFU/ml) 0 hour ([1]; Table 3, single agent 2 mcg/ml): 6.81 Log10 CFU/ml; Bacterial count (Log10 CFU/ml) 2 hour ([1]; Table 3, single agent 2 mcg/ml): 6.48 Log10 CFU/ml; Bacterial count (Log10 CFU/ml) 4 hour ([1]; Table 3, single agent 2 mcg/ml): 7.6 Log10 CFU/ml; Bacterial count (Log10 CFU/ml) 6 hour ([1]; Table 3, single agent 2 mcg/ml): 7.5 Log10 CFU/ml; Bacterial count (Log10 CFU/ml) 0 hour ([2]; Table 5, single agent 4 mcg/ml): 6.44 Log10 CFU/ml; Bacterial count (Log10 CFU/ml) 2 hour ([2]; Table 5, single agent 4 mcg/ml): 6.2 Log10 CFU/ml; Bacterial count (Log10 CFU/ml) 4 hours ([2]; Table 5, single agent 4 mcg/ml): 6.4 Log10 CFU/ml; Bacterial count (Log10 CFU/ml) 6 hour ([2]; Table 5, single agent 4 mcg/ml): 6.0 Log10 CFU/ml
